Source: patent US12624003B2, “Carboxylic acid containing indanyl compounds for the treatment of neurodegenerative diseases” (Celgene Corporation, priority 2020, dated 2026)

Biological target: T1, S1P5 (Homo sapiens, UniProt Q9H228)
T1 construct: expressed in transfected cells; host or cells: CHO cells (membranes)
Assay: [35S]-GTPγS functional binding assay on CHO-S1P5 membranes
Format: biochemical
Settings: membranes of CHO cells expressing recombinant S1P5 receptors; measure of S1P5 agonism
Protocol: CHO cells expressing recombinant S1P5 receptors were cultured in 500 cm^2 culture trays and, once confluent, rinsed and detached with cell-lifting buffer (10 mM HEPES, 154 mM NaCl, 6.85 mM EDTA, pH 7.4). Cells were then pelleted by centrifugation, resuspended, and homogenized in membrane preparation buffer (10 mM HEPES and 10 mM EDTA, pH 7.4) using a Polytron PT 1200E homogenizer (Kinematica, Luzern, Switzerland). Cellular proteins were pelleted by centrifugation at 48,000×g at 4° C. for 30 minutes. The resulting supernatant was discarded, and the pellet was re-suspended again in membrane preparation buffer, homogenized for a second time, and then centrifuged again as described above. The final cellular protein pellet was suspended in ice cold resuspension buffer (10 mM HEPES and 0.1 mM EDTA, pH 7.4), divided into aliquots, and stored at −80° C. until use.
Functional binding assays for [^35S]-GTPγS were performed in 96-well non-binding surface plates with a final volume of 200 μL. The test compounds were serially diluted in DMSO and added to assay plates using a Tecan D300E digital printer with a total volume of 0.4 μL. The control sphingosine-1-phosphate (S1P) was prepared separately by preparing a 400 μM stock solution from a 100 nmol pellet of SIP in 10 mM Na2CO3 with 2% s-cyclodextrin. The serial dilution of S1P was done using complete assay buffer (20 mM HEPES, 10 mM MgCl2, 100 mM NaCl, 1 mM EDTA, 0.1% fatty acid free bovine serum albumin (BSA), and 30 μg/mL saponin, pH 7.4) and transferred to wells already containing 0.4 μL DMSO. All the wells were then loaded to a total volume of 40 μL of complete assay buffer, except the non-specific binding (NSB) wells. For NSB wells, 40 μL/well of 50 μM GTPγS (Sigma Aldrich, cat #G8634, St. Louis, MO) was added to wells containing 0.4 μL of DMSO. The assay was started by the addition of 120 μL/well of CHO-S1P receptor membrane solution containing 40 μg/mL of membrane protein, 16.67 μM guanosine diphosphate (GDP; Sigma Aldrich, cat #G7127, St. Louis, MO), and 2.5 mg/mL of WGA PVT SPA beads in complete buffer. Assay plates were then sealed and incubated at room temperature with gentle agitation for 30 minutes. Next, 40 μL/well of 1 nM of [^35S]-GTPγS (PerkinElmer, cat #NEG030X250UC, Waltham, MA) in basic assay buffer (20 mM HEPES, 10 mM MgCl2, 100 mM NaCl, and 1 mM EDTA, pH 7.4) was added to the assay plates to yield a final concentration of […] and the plates were further incubated for 40 minutes at room temperature with gentle agitation. The assay was terminated by centrifugation of the plates at 1000 rpm for 3 minutes using an Eppendorf 5810R centrifuge (Eppendorf, Hamburg, Germany) and G protein bound radioactivity was quantitated using a MicroBeta2 microplate scintillation counter (PerkinElmer, Waltham, MA). As G protein bound radioactivity directly correlates to receptor activation and coupling to the G protein, this assay is a measure of S1P5 agonism.

T1 sequence (Q9H228 whole entry, species assumed): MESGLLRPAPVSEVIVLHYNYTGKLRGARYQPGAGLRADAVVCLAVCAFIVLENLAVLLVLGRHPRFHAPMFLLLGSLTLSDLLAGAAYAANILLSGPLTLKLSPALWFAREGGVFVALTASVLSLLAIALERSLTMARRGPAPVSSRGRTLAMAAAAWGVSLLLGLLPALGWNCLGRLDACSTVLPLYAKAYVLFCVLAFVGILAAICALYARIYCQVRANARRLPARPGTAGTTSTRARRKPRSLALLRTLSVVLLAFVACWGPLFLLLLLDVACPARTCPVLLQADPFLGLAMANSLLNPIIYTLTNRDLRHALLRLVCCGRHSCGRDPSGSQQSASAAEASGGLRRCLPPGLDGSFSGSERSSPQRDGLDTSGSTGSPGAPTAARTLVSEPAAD

EC50 [nM] | Compound
≤ 10 | O=C(O)[C@@H]1CCN(C2CCc3cc(C#Cc4cccc(F)c4)ccc32)C1 (single isomer, unassigned) [Compound 14a]
≤ 10 | O=C(O)[C@@H]1CCN(C2CCc3cc(-c4ccc(C5CC5)c(Cl)c4)ccc32)C1 (single isomer, unassigned) [Compound 34b]
10 to 100 | O=C(O)C1CC2(C1)CN(C1CCc3cc(CCc4c(Cl)cccc4Cl)ccc31)C2 (stereo not drawn) [Compound 29, 2-(5-(2,6-dichlorophenethyl)-2,3-dihydro-1H-inden-1-yl)-2-azaspiro[3.3]heptane-6-carboxylic acid]
